From patent US12403129B2, “Isotope-enriched 3-amino-1-propanesulfonic acid derivatives for the treatment of cerebrovascular disease” (RISEN (SUZHOU) PHARMA TECH CO., LTD., priority 2021, dated 2025)

Legend:
[1] = system: rat model of dementia caused by multiple cerebral infarction; test: Cognitive tests in rat model of dementia caused by multiple cerebral infarction; type: in vivo, SD rats; details: for Discrimination coefficient for new objects, p compared with model group / Priority index for new objects, p compared with model group: n = 12-14
Procedure: 135 SPF grade SD rats (75 females, 60 males, weighing 200-220 g) were used. Anesthesia was performed by intraperitoneal injection of 3.5% chloral hydrate (350 mg/kg). After dorsal fixation, neck hair removal and iodophor disinfection, animals were cut along the middle of the neck to separate the right common carotid artery, external carotid artery and internal carotid artery. The common carotid artery was temporarily clamped by the artery clamp, the left external carotid artery was retrogradely punctured to the beginning of the left internal carotid artery with a pediatric scalp needle, and then 0.4 ml of embolic normal saline suspension was slowly injected with a syringe (the preparation of embolic normal saline suspension was as follows: blood was collected from the abdominal aorta of the same rat, dried naturally in a 37° C. incubator, and prepared for 80-200 minutes to form a blood clot; during application, 0.3 ml normal saline was added to every 10 mg blood clot), and the common carotid artery clamp was opened at the same time, then the external carotid artery was ligated and the skin was sutured. In the sham operation group, 0.4 ml normal saline was used instead of embolic suspension. The experimental animals were randomly divided into 6 groups according to weight balance, as follows: sham operation group, model group, positive control group (donepezil) and test compound group (different doses). There were 12-14 rats in each group. The animals in each group began to give drugs by gavage after modeling until the end of the experiment. The animals underwent Y maze experiment on the 16th day of administration, new object discrimination experiment on the 17th-20th day, Morris water maze experiment on the 22nd-27th day, and dark avoidance experiment on the 28th-29th day. On the 30th day, animals were sacrificed and tissues harvested for analysis.
The main pathological indexes included investigation of the improvement of learning and memory impairment in the dementia model animal by test compound using behavioral experimental methods such as Y maze, new object discrimination, Morris water maze and passive avoidance test (dark avoidance); investigation of the protective effect of test compound on mitochondria by detecting the content of ATP in hippocampus and cortex of rats; and investigation of levels of oxidative stress in the rat brain by measuring activity of superoxide dismutase (SOD, which is an oxygen free-radical scavenger), glutathione peroxidase (GSH-Px, which scavenges lipid peroxides induced by reactive oxygen species and —OH), nitric oxide synthase (NOS), malondialdehyde (MDA), and nitric oxide (NO). The ultrastructure of nerve cells (including nucleus, mitochondria and synapse) was investigated using immunofluorescence and transmission electron microscope. Expression of synaptic associated proteins SYP and PSD95 was detected by Western blotting. Experimental results for compound 4 on the concentration of nitric oxide (NO), the activity of nitric oxide synthase (NOS) and the ultrastructure of nerve cells in the rat model of dementia caused by multiple cerebral infarction are shown in FIGS. 7-11. Experimental results were statistically analyzed using IBM SPSS 21.0 software. The differences between groups were compared by one-way ANOVA or two-way ANOVA (water maze directional navigation) and LSD test.

[2] = system: mouse model of dementia caused by cerebral ischemia-reperfusion; test: Cognitive tests in mouse model of dementia caused by cerebral ischemia-reperfusion; type: in vivo, C57BL/6J mice
Procedure: (§1) 140 healthy C57BL/6J mice, including 70 males and 70 females, were used. 1% Pentobarbital Sodium (50 mg/kg) was injected intraperitoneally to anesthetize the mice. The back position was fixed, the neck hair was removed, and the common carotid arteries were cut along the middle of the neck after iodophor disinfection. The common carotid arteries were separated, clamped with a noninvasive artery clamp for 15 minutes, released for 10 minutes, and then clamped for 10 minutes. Penicillin powder was then applied to suture muscles and skin. The sham operation group was not clamped, and other operations were the same as for the model group. […] Mice were divided into 6 groups: sham operation group, model group, positive control group (donepezil) and test compound group (different doses). Test compounds were administered by gavage to each group on the next day of modeling. The compound group was given compounds once a day in the morning and evening, and the volume of each gavage was 10 ml/kg. Half of the animals in the sham operation group and the model group were given the same amount of distilled water, and half of the animals were given the same amount of 1% sodium carboxymethylcellulose solution. From the 16th day of administration, Y maze, new object discrimination (days 17-20), spontaneous activity (days 20), Morris water maze (days 23-28) and dark avoidance experiment (days 29-30) were carried out successively. During the behavioral experiment, the administration of compound was continued until the animals were sacrificed.
The main pathological index included: investigation of the improvement of learning and memory impairment by the compound in the pathogenic model of cerebral ischemia-reperfusion using behavioral experimental methods such as Y maze, new object discrimination, spontaneous activity, Morris water maze and passive avoidance experiment (dark avoidance); investigation of the ultrastructure of nerve cells (including nucleus, mitochondria and synapse) by HE staining and immunofluorescence; detection of expression of synaptic associated proteins SYP and PSD95 by Western blotting; and detection of expression of apoptosis-related proteins Bcl-2 and Bax by Western blotting. The experimental results for compound 4 on the expression of SYP and PSD95 in the hippocampus of dementia model mice induced by cerebral ischemia-reperfusion are shown in FIG. 5 and FIG. 6 and in Table V below. Experimental results were analyzed statistically using IBM SPSS 21.0 software. The differences between groups were compared by one-way ANOVA or two-way ANOVA (water maze directional navigation) and LSD test. Experimental data were expressed by “mean±SEM”, P<0.05.

SYP = SYP expression in hippocampus by Western blotting, ischemia-reperfusion dementia mice; type: in vivo, C57BL/6J mice
Procedure: Compound 4, 85 mg/kg, bid; D. Compound 4, 170 mg/kg, bid; E. Compound 4, 340 mg/kg, bid; F. Donepezil, 1.3 mg/kg. Compared with sham operation group, ## P<0.01; Compared with the model group, * P<0.05.
as §1, with “From the 16th day of administration, Y maze, new object discrimination (days 17-20), spontaneous activity (days 20), Morris water maze (days 23-28) and dark avoidance experiment (days 29-30) were carried out successively. During the behavioral experiment, the administration of compound was continued until the animals were sacrificed.” left out

[3] = Test group vs model group, n = 12-14, dose not given
[4] = first listing in Table VII, Test group vs model group
[5] = second listing in Table VII, Test group vs model group
[6] = Test group vs model group, n = 15-17, dose not stated
[7] = mice, gavage, morning and evening

[2H]C([2H])(CCS(=O)(=O)O)NC(=O)[C@@H](N)C(C)C [compound 4, 3-((L-valyl)amino)-3,3-dideuterium-1-propanesulfonic Acid]
p < 0.001: Percentage of swimming distance, p compared with model group [1, 3] | Spontaneous alternating response rate, p compared with model group [1, 3]
can improve: discrimination coefficient to new objects in the new object discrimination experiment ([1]; rats, gavage) | escape latency of directional navigation ([1]; rats, gavage) | number of errors entering the dark room in the dark avoidance experiment ([1]; rats, gavage) | number of times of crossing the platform ([1]; rats, gavage) | percentage of swimming distance in the target quadrant ([1]; rats, gavage) | priority index to new objects in the new object discrimination experiment ([1]; rats, gavage) | spontaneous alternating reaction rate in the Y maze ([1]; rats, gavage) | swimming time in the target quadrant ([1]; rats, gavage) | total swimming distance in the water maze test ([1]; rats, gavage)
prolonged: incubation period of entering the dark room in the dark avoidance experiment [2, 7] | swimming time in the target quadrant in the water maze test [2, 7]
significantly improved: spontaneous alternating response rate in the Y maze experiment [2, 7]
may improve: working memory, image recognition and memory, spatial memory and long-term memory impairment ([1]; rat model of dementia caused by multiple infarction)
improved: discrimination coefficient to new objects in the new object discrimination experiment [2, 7] | percentage of swimming distance in the target quadrant [2, 7] | priority index to new objects in the new object discrimination experiment [2, 7]
p < 0.05: Swimming time in target quadrant, p compared with model group [1, 3] | The incubation period for entering the darkroom, p compared with model group [1, 3] | Times of threading, p compared with model group [1, 3] | Discrimination coefficient for new objects, p compared with model group [1, 4] | Priority index for new objects, p compared with model group [1, 4] | Discrimination coefficient for new objects, p compared with model group [1, 5] | Discrimination coefficient for new objects, p compared with model group [2, 6] | Percentage of swimming distance, p compared with model group [2, 6] | Priority index for new objects, p compared with model group [2, 6] | Spontaneous alternating response rate, p compared with model group [2, 6] | Swimming time in target quadrant, p compared with model group [2, 6] | The incubation period for entering the darkroom, p compared with model group [2, 6] | SYP expression, p compared with model group (SYP; [6])
p < 0.01: Priority index for new objects, p compared with model group [1, 5] | Times of crossing the platform, p compared with model group [2, 6]
increased: number of times of crossing the platform [2, 7] | expression of SYP (SYP; compared with the model group)
can significantly improve: working memory, image recognition memory, spatial memory and long-term memory impairment ([2]; vascular dementia mice caused by cerebral ischemia-reperfusion)
